This note sets out measurements from patent publication US6514942B1, “Methods and compositions for stimulating T-lymphocytes” (The Board of Regents, The University of Texas System, priority 1995, dated 2003).

In one test the target is T1, HLA-A2 of T2 cells (Homo sapiens, UniProt P04439, D140Y/D185E/D98H/E176V/E277Q/G131W/G231S/I119V/I121R/I166T/I218V/L300P/L318F/N151K/N90K/P208A/P217A/Q86G/Q94H/R138H/R169H/T345S).
T1 construct: cell surface expression of HLA-A2 is lower (30-40%) than in normal LBL lines transfected with HLA-A2; endogenous in cells; host or cells: T2 (transport deletion mutant) human lymphoblastoid cells, obtained from Dr. Peter Creswell
Nature of the test: Reactivity of MA2.1 mAb with T2 cells after culture with peptide (immunofluorescence, FL1). The class given is cell-based. The following applies: peptide 50 μg/ml, overnight culture in IMDM-FCS. The procedure:
FIG. 5A. Effects of HER-2 peptides on reactivity of MA2.1 mAb with T2 cells. Fluorescence analysis and determination of FL1 were performed as described (Stauss et al., 1992). Peptides were added to T2 cells at 50 μg/ml (final concentration). After overnight culture, in IMDM-FCS, cells were washed and the levels of HLA-A2 expression were determined using HLA-A2 specific mAb.
(§1) mAbs to CD3 (OKT3-FITC), CD4 (OKT4-FITC) and CD8 (OKT8-FITC) were obtained from Ortho Diagnostic (Ortho, Raritan, N.J.), mAb W6/32 (anti-HLA, -A, -B, -C) from Dako (Dako-Dakopatts, Denmark); HLA-A2 reacting mAb BB7.2 and MA2.1 from ATCC. Immunofluorescence studies were performed as described in Example 1.
To determine whether these peptides and longer analogs affect HLA-A2 conformation as an indication of HLA-A2 binding, the effects of HER-2 peptides on the reactivity of conformationally dependent mAb MA2.1 and BB.7.2 were examined with HLA-A2 of T2 cells. The human cell line T2 has a defect affecting endogenous peptide loading of MHC class I molecules. As a consequence, cell surface expression of HLA-A2 is lower (30-40%) than in normal LBL lines transfected with HLA-A2 (e.g., C1R) but the reactivity of MA2.1 and BB.7.2 mAb is increased when certain HLA-A2 binding peptides are added to the culture medium (Anderson et al., 1993). Although most human MHC class I molecules cannot be induced at the low temperatures used for their murine counterparts because of fundamental structural differences between human and mouse class I (Anderson et al., 1993), the fact that they express few endogenous (mainly signal) peptides (Zweerink et al., 1993) increases the sensitivity of detection of peptide-HLA-A2 interaction.

For another test, the system named is PBMC. The experiment in a line: Surface phenotype of T-cells from PBMC cultures stimulated with HER-2 peptide. The test is classed as cell-based, human. The settings on record: nine days after first stimulation, expansion in IL-2. The procedure: FIG. 7A. Surface phenotype of T-cells from PBMC cultures stimulated with HER-2 peptide D97. Fresh isolated PBMC from healthy volunteers were induced in vitro with HER-2 peptides. T-cell surface phenotypes were determined after one (1) and two (2) stimulations with the same peptide. Immunofluorescence analysis was performed as described in the Materials and methods. Symbols indicate (o—o) CD3^+ cells, (▪—▪) CD8^+ cells, and (□—□) CD4^+ cells.
as §1
To address the question of whether in vitro stimulation of PBMC with HER-2 peptides followed by culture in the presence of IL-2 leads to T-cell phenotype change, the % CD3, CD4, and CD8 expression on the surface of HER-2 peptide-stimulated PBMC were determined. The results of a typical study are shown in FIG. 7A, FIG. 7B and FIG. 7C. […] This trend continued in all cultures and 10-15 days after a third stimulation, with the same peptide in all cultures, CD4^+ cells constituted the dominant (>80%) cell population.

For a further test, the system named is C1R:A2 cells. The experiment in a line: In vitro induction of peptide-reactive CTL from PBMC, 51Cr release on peptide-pulsed C1R:A2. The class given is cell-based, human.
The next test relates to HLA-A2+ PBMC. The experiment in a line: Proliferation assay (3H-thymidine incorporation, stimulation index). The test is classed as cell-based, human. The settings on record: Donor 20; peptide 50 μg/ml, 5 days. The procedure:
Fresh PBMC from healthy volunteers isolated by Ficoll-Hypaque™ were distributed into 96-well round-bottomed plates (Falcon, Becton-Dickinson) at 2×10^5/well in RPMI-FCS. Peptides were added at 50 μg/ml. The studies were performed at least twice using PBMC from the same donor, in quadruplicate. After 5 days, for the last 16 h in culture, wells were pulsed with 1 μCi of [^3H]-thymidine (^3H-Tdr) and counted. Proliferation was determined as ^3H-Tdr incorporation and c.p.m. determined in the samples of PBMC cultured with peptides and were divided by c.p.m. determined same cultures in the absence of peptides, to determine the stimulation index (S.I.).
HER-2 peptides (Table 6) were tested for their ability to stimulate HLA-A2^+ PBMC to proliferate in vitro. PBMC from healthy donors were incubated with HER-2 peptides from the groups:41-56, 392-410 and 968-984 for 5 days. With few exceptions, significant cell proliferation was not observed in all 4 PBMC samples from individual donors of different HLA-types including HLA-A2. […] The exception to these observations was Donor 20.S.I. for D95 was 6.4, for D121 was 4.3, but for the nonamer D119 was only 1.1. Similarly, the S.I. for the longer peptide D96 (41-54) was 2.8 but for the shorter peptide D97 was only 1.5. These differences were statistically significant.
On the technique in general: Incorporation of labelled thymidine or its analogues reports DNA synthesis.

The target in test [1] is T2, HLA-A2 on indicator T2 cells (Homo sapiens, UniProt P04439, D140Y/D185E/D98H/E176V/E277Q/G131W/G231S/I119V/I121R/I166T/I218V/L300P/L318F/N151K/N90K/P208A/P217A/Q86G/Q94H/R138H/R169H/T345S).
T2 construct: cell surface expression of HLA-A2 is lower (30-40%) than in normal LBL lines transfected with HLA-A2; endogenous in cells; host or cells: T2 (transport deletion mutant) human lymphoblastoid cells, obtained from Dr. Peter Creswell
The experiment in a line: Stabilization of HLA-A2 expression on indicator line T2. The class given is cell-based. An excerpt:
Since HER-2 is a self-antigen, during thymic selection, a number of T-cells carrying receptors with high affinity for the HLA-peptide complex are silenced either by elimination ro tolerization. A pre-condition for induction of a high affinity TCR-(MHC+peptide) interactions, is a stable (MHC+peptide) complex. […] However, stabilization of HLA-Class I binding by exogenously added peptide is dependent on introduction of dominant anchors in positions P2 and P9 which are not recognized by TCR.
Peptide D113, […] (SEQ ID NO:17), is the natural nonapeptide […].

A further test has as its system C84 reactive CTL. Nature of the test: Recognition by C84 reactive CTL. The class given is cell-based, human. The source says: The analogs with sequences C91=[…], (SEQ ID NO:4) and C92=[…] (SEQ ID NO:3) are also compositions of the present invention. In addition, substitutions at P4 (S→K) and P6 (F→V) affect residues that are expected to interact with TCR. […] Both C81 and C82 can form the core for antagonists of HER-2 reactive CTLs (to control and stop CTL reactions), and as such represent the first “universal” antagonists reported for stimulating CTLs.

Consider “LQPEQLQVFETLEEITGYLY [Peptide D121, HER-2:392-411, 20-mer]”, for which, in the test with HLA-A2 of T2 cells, the “FL1 of T2 cells stained with MA2.1 mAb” value is “failed to significantly affect the FL1”. Further, the “change in CD8+ cells” value with PBMC was “significant increase in CD8^+ cells”. The “Ag specificity of CTL response induced by the peptide” value with C1R:A2 cells (PBMC stimulated with the peptide) is on record as “lacked Ag specificity”. In the test on C1R:A2 cells (donor 20), the “lysis of peptide-pulsed targets by PBMC stimulated with the peptide” value is “somewhat higher lysis of targets pulsed with the nonapeptide D119 than D121”. Further, the “stimulation index (S.I.)” value with HLA-A2+ PBMC stood at 4.3.

On to “ELVKEVSKV [Peptide C82, C85 analog with P4 (S→K) and P6 (F→V) substitutions]”, for which the HLA-A2 binding result in test [1] was “binds HLA-A2”. Also, in the test on C84 reactive CTL, the “recognition by C84 reactive CTL” value is “no longer recognized by C84 reactive CTL”.
